Data on 2 compounds can be found in US9072729B2, “Method for treating fibrosis and cancer with imidazolium and imidazolinium compounds” (Agency for Science, Technology and Research, priority 2008, dated 2015).

The subject of one data set is survivin in HLE cells. Nature of the data set: Survivin translocation assay (HCS). The note with it: 24 hr. In kind it is cell-based, human. On the procedure:
FIG. 25. DBZIM induced nucleus to cytoplasm translocation of survivin protein. (A) Representative immunocytostaining images of HLE cells treated by DBZIM (0 and 1.0 mM) for 24 hr. Arrows indicate the accumulation and the disappearance of survivin in the nucleus of the control and the DBZIM-treated cells, respectively. The images were acquired and analyzed using ArrayScan VTI HCS reader (Thermal Scientific, PA, USA) and Target Activation BioApplication software. (B) Quantitation of translocation event. Cells were grown in 96-well plate and treated by DBZIM of various concentrations for 24 hr before fixation and immunocytostaining for survivin. Lower value in “Cytoplasmic-Nuclear Difference” indicated a lower amount of cytoplasmic survivin.
HLE cells cultured in 96-well plate were treated with DBZIM for 24 hr before staining and imaging. Cells were then fixed and stained with antibodies against […] and Survivin. (Lab Vision Corp. CA, USA) and buffer reagent from Hitkit (Thermo Scientific, IL, USA). The cells were imaged and analyzed on ArrayScan VTI HCS reader (Thermal Scientific, PA, USA). Fluorescence intensity in the cytoplasmic and nuclear area was plotted for indication of cytoplasm to nucleus translocation.

A further data set relates to IMR90. Kind of data set: Cytotoxicity on normal (non-cancerous) lung cells. Format: cell-based. On the procedure:
The IC50 value (determined at day 3) was 50 μM for H1299 (lung cancer); 50 μM for MCF-7 (breast cancer), and 40 μM for AGS gastric cancer at day 3 (Table 3).

The test system of the next data set is Huh7 cells. Nature of the data set: HCC xenograft model (Huh7 cells in Balb/c nude mice). The note with it: 2 grams/liter in drinking water, 3 weeks. Format: in vivo, mouse. How it is done:
(§1) Balb/c Nude mice, 5-6 weeks old, were inoculated with 1×10^7 Huh7 cells in 0.2 ml volume of Matrigel/DMEM mix. Since not every mouse developed a tumor after the inoculation of HCC cells, only those with visible tumors (about 8 weeks after inoculation) were used for subsequent experiment. The tumor-bearing mice were randomly divided to the control and the treatment group. (n=3), respectively. Mice in the treatment group had free access to drinking water containing DBZIM (2 grams/liter) only, while mice in the control group had free access to Water only. The compound treatment lasted for 3 weeks. The tumor size was measured weekly, and the tumor volume was calculated using the formula: 0.52×width^2×length.
as §1, with “group” for “group.”, “compound 9 (IBN-9) at 0.6 g/l or 1.5 g/l” for “DBZIM (2 grams/liter)”, “water” for “Water”

The subject of data set [1] is HLE cells. Kind of data set: Annexin V staining and flow cytometry, HLE. The note with it: 24 hr, TRAIL 100 ng/ml. In kind it is cell-based, human. How it is done:
FIG. 22. […] HLE or HepG2 cells were incubated with DBZIM of various concentrations for 6 hr, and assayed for caspase 3/7 activity and LDH releasing (expressed as % toxicity). DBZIM induced apoptosis as characterized by annexin V staining using flow cytometer in HLE (E) and HepG2 (F). Scatter plot and histogram gave the representative information on the cell population distribution while bar graphs quantified the percentage of apoptotic cells from the histogram. HLE and HepG2 cells were treated by DBZIM of various concentrations for 24 hr before harvesting for annexin V staining and flow cytometric analysis.
HLE and HepG2 cells were treated with various concentrations of DBZIM or TRAIL (100 ng/ml) for 24 hr, harvested and labeled with Annexin V-FITC (BioVision, CA, USA). The labeled cells were analysed by flow cytometry FACSCalibur ([…], NJ, USA) and CellQuest software. Cells showing green staining in the plasma membrane were considered as apoptotic cells.
(In general: A flow cytometer gives signals particle by particle.)

Another data set deals with phospho-Ser473-Akt. Nature of the data set: Western blot of phosphorylated Akt. In kind it is cell-based, human. The note with it: H1299, MCF-7, AGS and MKN28, IC50 concentration, 24 h to 72 h. From the text:
FIG. 32. DBZIM inhibits phosphorylation of Akt. […] Time course inhibition of phosphorylated-AKT was shown by Western blot. β-actin was used as an internal loading control.
The Akt (also known as protein kinase B) kinase signaling pathway is activated in a variety of carcinomas of lung, breast, colon, and pancreatic and other tumor types through over-expressing the Akt protein itself and/or increasing phosphorylation of Akt. This study provided evidence that DBZIM is particularly efficacious in inducing apoptosis in AGS, H1299 and MCF-7 cells through a mechanism involving the reduction in the levels of the, phospho-AKT.
(Immunoblotting shows a protein as a band on a membrane.)

Data set [2] relates to HLE cells. Kind of data set: ROS determination in HLE cells (dihydroethidium). In kind it is cell-based, human. The note with it: millimolar range, 24 hr. How it is done: FIG. 27. High dose DBZIM induced ROS production in HLE cells. HLE cells were grown in 96-Well plate and treated by DBZIM for 24 hr. The cells were then fixed and stained by DHE for quantification of ROS generation. The images ware acquired and analyzed using ArrayScan VTI HCS reader (Thermal Scientific, PA, USA) and Target Activation BioApplication software.
Oxidative stress was measured using Cellomic HitKit (Thermo Scientific, IL, USA). HLE cells were treated with DBZIM for 24 hr, fixed and labeled by Dihydroethidium probe for quantitation of ROS generation and Hoechst dye for nuclear staining. The result was analyzed by Target Activation BioApplication software. The percentage of positive responding cells was plotted as the indication of ROS amount.

Data set [3] has as its system HLE cells. Nature of the data set: DNA content analysis (cell cycle) in HLE cells. In kind it is cell-based, human. The note with it: 0, 1, 3 mM, 24 hr. How it is done:
FIG. 21. DBZIM inhibited cell proliferation and disrupted cell cycle in HLE cells (A). DBZIM inhibited HCC cell proliferation. HLE cells were seeded at a density of 5000 cells/well in 96-well plate, and cultured for 18-24 h in 10% […] DMEM before the addition of various compounds (0-1.25 mM) in 10% FBS DMEM for 48 h of proliferation before assaying. Cell count was calculated based on Hoechst dye staining and BrdU incorporation was based on the total fluorescence intensity of antibody staining. (B). DBZIM arrested HCC cells at G0/G1 phase. HLE cells were incubated with DBZIM (0, 1, 3 mM) for 24 hr before fixation and DAPI staining for DNA content (2N vs. 4N) determination.
HLE cells grown in a 96-well plate were treated with compounds in 6 replicates for 24 hr. Cells were then fixed with 4% paraformaldehyde and stained with DAPI. Cells were analyzed and imaged on ArrayScan VTI HCS reader (Thermal Scientific, PA, USA) and DNA content (2N vs. 4N) was determined based on DAPI staining.

For data set [4] the following is noted: dosage of 30 mg/kg (Lin et al. 2004); cited from earlier work.

`[Br-].c1ccc(Cn2cc[n+](Cc3ccccc3)c2)cc1` [DBZIM, 1,3-bisbenzylimidazolium bromide]: the survivin translocation result in the data set with survivin in HLE cells is reported as “translocated from the nucleus to the cytoplasm”. The “cytotoxicity on normal lung cells” value in the data set with IMR90 is reported as “much less cytotoxicity”. For the same compound, in the data set on Huh7 cells, the “decrease of body weight” value came to 17% and the “reduction of tumor volume” value was 40%. Also, the “apoptosis (annexin V staining)” value with HLE cells [1] is recorded as “dose-dependently induced apoptosis”. Besides, the “active form of Akt (phospho-Ser473-Akt)” value with phospho-Ser473-Akt is given as “appreciable down-regulation”. Also, the ROS generation result in the data set with HLE cells [2] was “generated significant amount of ROS”. Also, in the data set with HLE cells [3], the cell cycle arrest result was “arrested HLE cells in the G0/G1 phase”.
Regarding “(−)-Epigallocatechin gallate [EGCG, reference compound]”, in data set [4], the “half life in rat blood” value is about 1.2 h.
